Source: patent US9198886B2, “Use of 2,5-dihydroxybenzene for the treatment of ocular diseases” (priority 2006, dated 2015)

How the values were obtained:
[1] = tested on: human retinal endothelial cells (HREC); assay: Proliferation of human retinal endothelial cells (crystal violet); type: cell-based; conditions: 100 μM, 72 hours; DHBS as calcium salt
Procedure: (§1) Primary cultures of human retinal endothelial cells (HREC) were used. Cells were obtained from Cell Systems (Virginia, USA) and subcultured with CSC complete medium (Cell Systems). Cells at 2 to 5 passages were seeded in 24-well plates at 7,500 cells/well density and, once attached, the cells were treated or not treated (controls) with 2A-5HBS (500 and 1000 μM) or 5A-2HBS (500 and 1000 μM) and they were allowed to proliferate for 72 hours, with daily medium changes. After that, the proliferation of HREC was evaluated by staining the fixed cells with crystal violet. The number of cells is proportional to the amount of retained dye, which was spectrophotometrically determined by measuring absorbance at 595 nm after removing the dye from the cells. Data are expressed as the percentage of absorbance at 595 nm obtained in control conditions. Data were obtained from two different experiments performed in triplicate.
as §1, with “2,5-DHCME (50” for “2A-5HBS (500”, “100” for “1000 μM) or 5A-2HBS (500 and 1000”, “changes. Under the same conditions, other cultures were treated with calcium 2,5-dihydroxybenzenesulfonate (DHBS; 100 μM) for comparison.” for “changes.”

[2] = tested on: infantile hemangioma; assay: Topical cream in a child with infantile hemangioma; type: in vivo, human; conditions: cream 2.5%, topical twice a day, 1, 2 and 3 months, one child
Source text: Photographs of a child showing the effects of the topical treatment with a cream comprising 2,5-dihydroxybenzenesulfonic (DHBS) (2.5%) in a baby suffering infantile hemangioma.
The cream comprising 2,5-dihydroxybenzene sulfonic (2.5%) was topically applied twice a day for 3 months on the face of a child suffering from infantile hemangioma.

[3] = tested on: Nakagawa angioblastoma; assay: Topical cream in a child with Nakagawa angioblastoma (hemangioblastoma); type: in vivo, human; conditions: cream 2.5%, topical twice a day, 1 month, one child
Source text: Photographs showing the effects of a topical treatment with a cream comprising 2,5-dihydroxybenzenesulfonic (DHBS) in a child suffering from Nakagawa angioblastoma.
The cream comprising 2,5-dihydroxybenzene sulfonic (2.5%) was topically applied twice a day during 1 month on the face of the child suffering from Nakagawa angioblastoma.

## O=S(=O)(O)c1cc(O)ccc1O [DHBS, 2,5-dihydroxybenzene sulfonic acid]
[1]
  HREC proliferation: failed to significantly affect HREC proliferation
[2]
  appearance of the hemangioma lesion: substantial recovery of the lesion
[3]
  coloration of the hemangioblastoma lesion: reduction in the intensity of the reddish coloration
